Experimental data as given in US20240376075A1, “POLYMORPHIC FORMS OF AURORA A SELECTIVE INHIBITORS AND USES THEREOF” (Jacobio Pharmaceuticals Co., Ltd., priority 2021, published 2024).

Legend:
[1] = Crystal form stability experiment (XRPD); format: physicochemical; conditions: for Results (XRPD): uncapped or sealed, protected from light, 7 days and 14 days
Description: 1. […] The crystal forms stability test was carried out under the specified experimental conditions.

[2] = PK in dog, oral suspension; format: in vivo, Beagle dogs; conditions: for AUC(0-t) / Cmax / half-life: dog, plasma, Beagle dogs, suspension in 0.5% CMC-Na
Description: Then plasma samples were collected at 0 hour (pre-dose), 0.083, 0.25, 0.5, 1, 2, 4, 6, 8, 24 hours post-dose. Plasma drug concentration was detected by LC-MS/MS. Pharmacokinetic parameters were calculated using WinNonlin's software with non-compartmental model.

[3] = PK in rat, oral suspension; format: in vivo; conditions: Sprague-Dawley, plasma, SD rats, PO: 5 mg/kg, suspension in 0.5% CMC-Na
Description: The plasma samples were collected at 0 hour (pre-dose), 0.083, 0.25, 0.5, 1, 2, 4, 6, 8, 24 hours post-dose. Plasma drug concentration was detected by LC-MS/MS. Pharmacokinetic parameters were calculated using WinNonlin's software with non-compartmental model.

## Cc1cc(Nc2nc(C[C@@]3(C(=O)[O-])CCN(Cc4cccc(Cl)c4F)[C@H](C)C3)cc(C)c2F)n[nH]1.[K+] [Polymorph form II, potassium (2R,4R)-1-(3-chloro-2-fluorobenzyl)-4-((5-fluoro-4-methyl-6-((5-methyl-1H-pyrazol-3-yl)amino)pyridin-2-yl)methyl)-2-methylpiperidine-4-carboxylate]
[1]; after drying under 40° C. overnight
  solid form conversion: converted to polymorph form I

## Cc1cc(Nc2nc(C[C@@]3(C(=O)[O-])CCN(Cc4cccc(Cl)c4F)[C@H](C)C3)cc(C)c2F)n[nH]1.[K+] [polymorph form I, potassium (2R,4R)-1-(3-chloro-2-fluorobenzyl)-4-((5-fluoro-4-methyl-6-((3-methyl-1H-pyrazol-5-yl)amino)pyridin-2-yl)methyl)-2-methylpiperidine-4-carboxylate monohydrate]
[2]; PO: 3 mg/kg
  AUC(0-t): 45.5 µg·h/mL
  Cmax: 14.3 µg/mL
  half-life: 8.12 h
[2]; PO: 10 mg/kg
  AUC(0-t): 165 µg·h/mL
  Cmax: 45 µg/mL
  half-life: 4.51 h
[2]; oral, summary of Examples 6 and 7 (rat and dog)
  absorption and exposure in vivo: great absorption and a high exposure
[3]
  AUC(0-t): 93.3 µg·h/mL
  Cmax: 12.4 µg/mL
  half-life: 4.11 h
[1]; Accelerated (40° C. ± 2° C., 75% RH ± 10% RH)
  Results (XRPD): Polymorph form I
[1]; Long-time (25° C. ± 2° C., 65% RH ± 10% RH)
  Results (XRPD): Polymorph form I
[1]; at room temperature
  relative stability of the forms: most stable
[1]; long-term and accelerated conditions for 14 days
  crystal form stability: remained unchanged

## Cc1cc(Nc2nc(C[C@@]3(C(=O)[O-])CCN(Cc4cccc(Cl)c4F)[C@H](C)C3)cc(C)c2F)n[nH]1.[K+] [amorphous, potassium (2R,4R)-1-(3-chloro-2-fluorobenzyl)-4-((5-fluoro-4-methyl-6-((5-methyl-1H-pyrazol-3-yl)amino)pyridin-2-yl)methyl)-2-methylpiperidine-4-carboxylate]
[1]; sealed for more than two weeks
  solid form conversion: transformed to Polymorph form I

## Cc1cc(Nc2nc(C[C@@]3(C(=O)[O-])CCN(Cc4cccc(Cl)c4F)[C@H](C)C3)cc(C)c2F)n[nH]1.[K+] [Polymorph form III, potassium (2R,4R)-1-(3-chloro-2-fluorobenzyl)-4-((5-fluoro-4-methyl-6-((5-methyl-1H-pyrazol-3-yl)amino)pyridin-2-yl)methyl)-2-methylpiperidine-4-carboxylate]
[1]; when cooled back to room temperature
  solid form conversion: converted to polymorph form I
